Laboratory results from the NIST ThermoML archive (doi:10.1021/je700339f).

Details: Liquid

ClCCCCCCCl [1,6-dichlorohexane]
mass density [kg/m3]
Details	288.15 K	298.15 K	308.15 K	318.15 K
100 kPa	1073.7	1063.8	1054.6	1045.1
500 kPa	1073.9	1064.2	1054.9	1045.3
1000 kPa	1074.3	1064.4	1055.2	1045.7
1500 kPa	–	1064.8	1055.5	1046.2
1600 kPa	1074.6	–	–	–
2000 kPa	1075	1065.2	1055.9	1046.6
2500 kPa	1075.3	1065.5	1056.3	1046.9
3100 kPa	1075.7	1065.9	1056.7	1047.4
3600 kPa	1076	1066.3	1057.1	1047.8
4100 kPa	1076.3	1066.7	1057.4	1048.1
4500 kPa	–	1066.9	–	–
4600 kPa	1076.6	–	1057.8	1048.4
5000 kPa	–	1067.3	–	–
5100 kPa	1076.9	–	1058.2	1048.9
5600 kPa	1077.3	1067.6	1058.5	1049.2
6100 kPa	1077.6	1068	1058.9	1049.7
6500 kPa	1077.9	–	–	–
6600 kPa	–	1068.4	1059.2	1050
7100 kPa	1078.3	1068.7	1059.6	1050.4
7600 kPa	1078.5	1069	1059.8	1050.7
8100 kPa	1078.9	1069.4	1060.2	1051.2
8500 kPa	–	–	–	1051.4
8600 kPa	1079.2	1069.7	1060.6	–
9100 kPa	1079.5	–	–	1051.8
9200 kPa	–	1070.1	1061	–
9600 kPa	1079.9	1070.4	1061.4	1052.2
10100 kPa	1080.2	1070.7	1061.7	1052.6
10600 kPa	1080.5	1071.1	1062.1	–
10700 kPa	–	–	–	1053.1
11000 kPa	–	1071.3	–	–
11100 kPa	1080.8	–	1062.4	1053.6
11600 kPa	1081.2	–	1062.7	1053.9
11700 kPa	–	1071.7	–	–
12100 kPa	1081.5	1071.9	1063.1	1054.1
12600 kPa	1081.8	1072.3	1063.5	1054.5
13100 kPa	1082.1	1072.6	1063.8	1054.8
13600 kPa	1082.4	1072.9	1064.1	1055.3
14100 kPa	–	–	1064.5	–
14200 kPa	1082.8	1073.3	–	1055.6
14700 kPa	1083	1073.6	–	1056
14800 kPa	–	–	1064.9	–
15100 kPa	–	–	1065.1	–
15200 kPa	1083.4	1074	–	1056.3
15600 kPa	–	–	–	1056.6
15700 kPa	1083.7	1074.3	1065.5	–
16200 kPa	–	–	1065.8	–
16300 kPa	1084	–	–	1057.1
16400 kPa	–	1074.8	–	–
16700 kPa	–	–	1066.2	–
16800 kPa	1084.3	1075.2	–	1057.3
17300 kPa	1084.6	1075.5	1066.6	1057.7
17800 kPa	1084.9	1075.8	1066.9	1058
18300 kPa	1085.3	1076.1	1067.2	1058.3
18700 kPa	–	1076.4	1067.4	–
18800 kPa	1085.5	–	–	–
18900 kPa	–	–	–	1058.8
19200 kPa	1085.7	1076.7	1067.8	1059
19700 kPa	1086	1076.9	1068	1059.3
20200 kPa	1086.5	1077.3	–	1059.6
20300 kPa	–	–	1068.5	–

ClCCCl [1,2-dichloroethane]
mass density [kg/m3]
Details	288.15 K	298.15 K	308.15 K	318.15 K
100 kPa	1259.9	1245.5	1231	1216.4
500 kPa	1260.3	1246.1	1231.4	1216.7
1000 kPa	1260.8	1246.4	1232	1217.4
1500 kPa	1261.2	1246.9	1232.5	1218
2000 kPa	1261.6	1247.4	1233	1218.5
2500 kPa	1262.2	1247.8	1233.5	1219.1
3100 kPa	1262.7	1248.5	1234.2	1219.8
3600 kPa	1263.2	1248.9	1234.7	1220.3
4100 kPa	1263.6	1249.4	1235.2	1220.9
4600 kPa	1264	1249.9	1235.7	1221.4
5100 kPa	1264.5	1250.4	1236.2	1222
5600 kPa	1264.9	1250.9	1236.9	1222.6
6100 kPa	1265.4	1251.4	1237.3	1223.1
6600 kPa	1265.8	1251.9	1237.9	1223.6
7100 kPa	1266.2	1252.3	1238.4	1224.1
7600 kPa	1266.7	1252.9	1238.6	1224.7
8100 kPa	1267.2	1253.2	1239.3	1225.2
8600 kPa	1267.6	1253.8	1239.8	1225.8
9200 kPa	1268.2	1254.4	1240.4	1226.3
9600 kPa	1268.6	1254.9	1240.9	1226.9
10000 kPa	–	1255.1	–	–
10100 kPa	1269	–	1241.3	1227.5
10600 kPa	1269.4	1255.9	1241.8	1227.9
11100 kPa	1269.8	1256.4	1242.3	1228.4
11600 kPa	1270.3	1256.7	1242.8	1229
12100 kPa	1270.7	1257.3	1243.4	1229.5
12500 kPa	–	–	–	1230
12600 kPa	1271	1257.6	1243.8	–
13100 kPa	1271.5	1258	1244.2	1230.6
13600 kPa	1271.9	1258.5	1244.7	1231
14100 kPa	1272.4	–	–	–
14200 kPa	–	1259	1245.3	1231.6
14700 kPa	1272.9	1259.4	1245.8	1232.1
15200 kPa	1273.3	1260	1246.4	1232.7
15600 kPa	–	–	–	1233.1
15700 kPa	1273.7	1260.5	1246.8	–
16200 kPa	–	1260.8	1247.2	–
16300 kPa	1274.2	–	–	1233.8
16700 kPa	–	1261.4	1247.7	–
16800 kPa	1274.6	–	–	1234.2
17200 kPa	1275	–	1248.2	–
17300 kPa	–	1261.9	–	1234.8
17700 kPa	1275.4	–	–	–
17800 kPa	–	1262.4	1248.7	1235.2
18200 kPa	1275.8	–	–	1235.5
18300 kPa	–	1262.8	1249.2	–
18600 kPa	1276.2	–	–	–
18800 kPa	–	1263.3	1249.6	–
18900 kPa	–	–	–	1236.2
19000 kPa	1276.5	–	–	–
19200 kPa	–	1263.7	1250.1	1236.5
19400 kPa	1276.9	–	–	–
19700 kPa	–	1264.1	1250.6	1237.1
20000 kPa	1277.3	–	–	–
20200 kPa	–	1264.5	1251	1237.5
